This passage reports IC50 results from patent US20090028832A1, “Compositions and methods for targeted tumor therapy” (priority 2006, published 2009).

Common to all, as to assay type: cell-based
Assay [1] concerns ARCaPM cells. The experiment in a line: Chemotherapeutic sensitivity, cell growth by MTT assay, ARCaPM cells. The conditions noted are these: Homo sapiens, in vitro growth, 96 hrs incubation. The protocol: (§1) Cells (5×10^3 per well) were cultured in 96-well plates for 24 hr and then replaced with fresh cultured medium to which were added Paclitaxel, Etoposide, or Doxorubicin (Sigma, St. Louis, Mo.) at 4 different concentrations, followed by incubation for 96 hrs. Cell growth was measured using the MTT assay.

Assay [2] concerns ARCaPE cells. In words: Chemotherapeutic sensitivity, cell growth by MTT assay, ARCaPE cells. The conditions noted are these: Homo sapiens, in vitro growth, 96 hrs incubation. The procedure:
as §1
In general terms: Tetrazolium assays rely on reduction of a dye to a coloured formazan, in cell work by metabolically active cells.

Assay [3] concerns C4-2 cells. In words: Chemotherapeutic sensitivity, cell growth by MTT assay, C4-2 cells. The conditions noted are these: Homo sapiens, invasive LNCaP lineage C4-2 cells, in vitro growth. The protocol:
as §1

As usually defined, the IC50 is the concentration at which inhibition is half-maximal. Take `COc1cccc2c1C(=O)c1c(O)c3c(c(O)c1C2=O)C[C@@](O)(C(=O)CO)C[C@@H]3O[C@H]1C[C@H](N)[C@H](O)[C@H](C)O1` [doxorubicin]: the IC50 in assay [1] was found to be 5.5 µM; in assay [2], 3.4 µM; in assay [3], 2.7 µM.

`COc1cc([C@@H]2c3cc4c(cc3[C@@H](O[C@@H]3O[C@@H]5CO[C@@H](C)O[C@H]5[C@H](O)[C@H]3O)[C@H]3COC(=O)[C@H]23)OCO4)cc(OC)c1O` [etoposide]: the half-inhibitory concentration (IC50) in assay [1] stood at 5.8 µM; in assay [2], 8.1 µM; in assay [3], 5.6 µM.

For `CC(=O)O[C@H]1C(=O)[C@@]2(C)[C@H]([C@H](OC(=O)c3ccccc3)[C@]3(O)C[C@H](OC(=O)[C@H](O)[C@@H](NC(=O)c4ccccc4)c4ccccc4)C(C)=C1C3(C)C)[C@]1(OC(C)=O)CO[C@@H]1C[C@@H]2O` [paclitaxel], the figures for the half-maximal inhibitory concentration (IC50) in assay [1], in assay [2] and in assay [3] were 0.039 µM, 0.053 µM and 0.0235 µM, respectively.
